Patent US20090197818A1, “Use Of Ribose for Recovery From Anaesthesia” (priority 2004, published 2009)

Experiments:
rats = settings: halothane for 30 minutes; Hendricks et al. 1984; cited from earlier work
Wistar rats = test: Planned non-cardiac sham abdominal surgery study under halothane anaesthesia; format: in vivo, rat; settings: D-Ribose before, during and after sham operation
Method: Littered-paired Wistar rats will be preconditioned with oral D-Ribose (250 mg/day, 10 animals) as a test drug or D-Glucose(250 mg/day, 10 animals) as a placebo for five days. Following the preconditioning, the rats will be anesthetized with halothane, intubated for artificial respiration and paralyzed with curare. Following general anaesthesia, the rats will be given either the test drug or placebo, intravenously (IV). A two-inch abdominal incision will be made and the viscera will be carefully manipulated to simulate an abdominal exploratory surgery. The incision will be closed and the animals will be held under anaesthesia for one additional hour. Following that hour, anaesthesia will be discontinued and the IV infusion will be halted. The animals will be placed individually in activity cages and their activity will be assessed daily for five days. Test drug or placebo will be added to the drinking water at a dosage of 5% wt/vol. The blinded results will be observed for: first movement (return to consciousness following the sham operation) and daily activity over the first day and next five days. Food and water intake and gastrointestinal function will be measured.

[1] = tested on: patients undergoing valve surgery plus CABG or CABG alone with aortic cross clamping; test: Double-blind placebo-controlled clinical trial of intravenous D-Ribose in cardiac surgery: ejection fraction by echocardiography; format: in vivo, human; settings: placebo EF declined; ANOVA repeated measures p=0.04
From the text: A protocol was devised to test whether human subjects undergoing either valve surgery plus coronary artery bypass graft (CABG) or CABG alone with decreased heart function would benefit from the administration of ribose following heart surgery as did the healthy dogs of the Foker study. […] Inclusion criteria were: • Males or females aged 18 or older • Patients with documented coronary artery disease undergoing CABG with an ejection fraction (EF) of ≦35% based on echocardiography, radionuclide imaging or cardiac catheterization done within eight weeks of surgery. […] For both the transesophageal and transthoracic echocardiograms, the following long axis and short axis mid-papillary area changes were measured in triplicate by acoustic quantification techniques: end diastolic area (EDA), end systolic area (ESA), fractional area change (FAC), +dA/dt and -dA/dt. All area change data were also analyzed by manual off line analysis. EF was also determined off line using a long axis view. In addition, regional wall motion was quantified as the following: normal=1, hypokinetic=2, akinetic=3 and dyskinetic=4. The wall motion index score (WMIS) and percentage normal myocardium were calculated by reading a maximum of sixteen segments. […]

healthy dog hearts = settings: D-Ribose from reperfusion for at least four days; U.S. Pat. No. 4,719,201; cited from earlier work
[2] = tested on: patients with aortic valve disease undergoing AVR; test: Planned clinical trial: preconditioning with oral D-Ribose before cross clamping, then intravenous infusion; format: in vivo, human; settings: oral D-Ribose 7 or 14 days before surgery, then i.v. 100 mg/kg/hour for five days
From the text: A single-center, randomized, double-blinded placebo-controlled clinical trial was designed to determine if preoperative oral administration of D-Ribose, following by peri-operative and operative intravenous infusion of D-Ribose could improve the ejection fraction and other functional parameters of hearts that are cross-clamped for various cardiac surgical procedures. Thirty (30) patients meeting the inclusion and exclusion criteria and who have signed informed consent forms will be randomized to receive oral D-Ribose (15) or D-Glucose (placebo) (15) for seven or 14 days prior to their surgical procedure and intravenous 5% […] (5% D-Glucose in normal saline, 0.5 mL/kg/hour) or 10% pyrogen-free D-Ribose in 5% D5W at a dose of 100 mg/kg/hour for five (5) days through a pulmonary artery cordis) beginning at the time of aortic cross clamping. […] Patients will be evaluated baseline ×2, (once prior to beginning oral test supplement and again within three days prior to surgical procedure), during and after surgery, and at days 1, 5 and 7. […] Patients will be evaluated for eligibility within three days to first test article administration and evaluation will be updated within three days prior to surgery. […] A medication history will be taken and all medications recorded in the case report. […]

[3] = Blood glucose monitoring and clinical laboratory safety in the intravenous D-Ribose cardiac surgery trial; format: in vivo, human
Method: Blood glucose levels were determined hourly, after initiation of the study drug infusion, by dextrastix (Accu-Chk III, Boehringer Mannheim Corp. Indianapolis Ind.) using blood from an intraarterial catheter. If the blood glucose level remained stable for 12 hours, then subsequent blood glucose levels were measured every 4 to 6 hours until the study drug infusion was stopped. Other clinical laboratory measurements including complete CBC with differential, platelet count, electrolytes=, liver function studies, serum osmolarity, and urinalysis were completed the morning following surgery. Abnormal laboratory tests were repeated as clinically indicated until normal or determined not to be clinically significant.
Five patients (28%) in the ribose treated group developed hypoglycemia (fingerstick glucose<70 mg/dl)) a known side effect of this pentose sugar. No placebo treated patients developed hypoglycemia. The mean glucose level in those patients developing hypoglycemia was 58 mg/dl. The lowest glucose level was 31 mg/dl. […] The study drug infusion was stopped in two subjects because of hypoglycemia. […] There were no statistical differences in the other clinical laboratory measurements.

[4] = tested on: adult patients selected for OCBP revascularization; test: Presurgical oral D-ribose loading before off cardiopulmonary bypass (OCBP) revascularization: cardiac indices; format: in vivo, human; settings: 24 patients oral D-ribose preoperatively vs 20 without; baseline to post-operative; p<0.028
From the text: Patients with stable coronary artery disease or patients presenting with acute myocardial infarction may undergo revascularization using an “off” cardiopulmonary bypass procedure (“OCBP”). This procedure avoids the deleterious effects of cross-clamping in patients who can be selected for the procedure. The selection criteria include: accessibility of the grafts; number of the grafts; condition of the patient. When the area to be revascularized is at the back of the heart, the heart will need to be handled and rotated, which would interfere with the beating of the heart. If several grafts are needed, the time of operation is prolonged and the patient's heart will need to support circulation for a long time. Finally, a poorly functioning heart will need the assistance of the pump to support circulation. Nevertheless, in properly selected patients, the benefits of avoiding cross-clamping are substantial.
Forty-four adult patients were enrolled in a trial. At least one-third of the patents had sustained an acute myocardial infarction prior to presentation and pre-operative ejection fractions ranged from 30-72%. All patients were selected for OCBP revascularization with 20 patients consuming no pre-operative ribose and 24 patients given oral D-ribose preoperatively, cardiac indices were measured at baseline and post-operatively. […]

[5] = tested on: patients recovering from hip or knee replacement operations; test: Anecdotal results from non-cardiac surgery with general anaesthesia; format: in vivo, human
From the text: For example, a person underwent two hip replacement operations, five months apart. With the second operation, they began taking oral ribose immediately after their recovery from anaesthesia. Their recovery to a feeling of alertness and energy was more rapid than after the first operation. Furthermore, their level of pain was less. Likewise, a person also underwent two knee replacement operations. With the second operation, they self-administered D-Ribose pre- and postoperatively. Their recovery to a feeling of alertness and energy was more rapid than after the first operation. Bauer et al. (Z. Geb. Neonatal 2001 May-June, 205(3):80-85) studied the efficacy of oral glucose for treating procedural pain in neonates. […] The authors proposed that the orogustatory stimulation by the sweet taste caused an endorphin release. It is not known whether the result seen was due to the local effect or to a systemic effect of glucose.

Compound | behavioural effects during the first week after anaesthesia (rats) | expected activity during the following five days versus placebo (Wistar rats) | expected first movement after anaesthesia versus placebo (Wistar rats) | course of EF from baseline to Day 7 versus placebo [1] | time to cardiac arrest with cardioplegia containing ribose versus animals not given ribose (cross-bred sheep; difference not statistically significant) | tolerability of supplemental ribose (cross-bred sheep; in vivo) | time quiet and inactive after extubation (cross-bred sheep; untreated series: additional 2 hours) | time to assume a consciousness state versus animals not given ribose (cross-bred sheep; upon weaning from the ventilator) | ATP recovery after global myocardial ischemia (healthy dog hearts) | expected myocardial function versus placebo [2] | patients with neurological or other clinical symptoms associated with hypoglycemia ([3]; hypoglycemic patients of the ribose treated group) | lowest glucose level ([3]; ribose treated group) [mg/dL] | mean glucose level in patients developing hypoglycemia ([3]; ribose treated group) [mg/dL] | patients who developed hypoglycemia (fingerstick glucose<70 mg/dl) ([3]; ribose treated group, five patients, none in placebo) [%] | greater increase in cardiac indices compared to controls [4] [%] | recovery to a feeling of alertness and energy compared with first operation ([5]; oral ribose at second operation, single patients) | level of pain compared with first operation ([5]; person, oral ribose after second hip replacement)
FC(F)(F)C(Cl)Br (centres unmarked) [halothane] | reduced spontaneous activity and neurological deficit |  |  |  |  |  |  |  |  |  |  |  |  |  |  |  | 
O=C[C@H](O)[C@H](O)[C@H](O)CO [D-Ribose] |  | increased activity | earlier movement | EF was maintained | somewhat faster | no metabolic or chemical abnormalities | about one | faster | enhanced ATP recovery | better myocardial function | None | 31 | 58 | 28 | 49 | more rapid | less
